Experiments:
[1] = test system: leukotriene B4 (LTB4) production in the corneas; assay: LTB4 production in corneas of rats exposed to UV irradiation; format: in vivo, albino rats; conditions: dexamethasone 4 mg/kg per day, melanotropin 10 μg/kg per day, irradiated untreated 2.47±0.8
Procedure: The antinflammatory activity of melanotropin in the eye was measured by the ability of the melanotropin to inhibit the production of the leukotriene (LTB4) which is produced during the inflammatory response elicited by noxious stimulae to the cornea.
The ability of melanotropin to inhibit an inflammatory response was determined in corneas of albino rats subjected to UV irradiation. The parameter used to measure the inflammatory response was the amount of production of leukotriene B4--known for its modulatory action in inflammation.
One eye of albino rats of either sex weighing 200-250 gm was exposed to UV irradiation (200-400 nm) for 15 min. daily for 4 consecutive days. The other contralateral eye of each rat was not exposed to the irradiation and served as a control. […]
In the treated group of animals, the specific treatment began each day within one hour after the UV exposure. […] At the end of the incubation, a sample was obtained from the medium and the contents of the leukotrien B4 (LTB4) was determined by a radioimmunoassay (RIA) technique using a New England Nuclear Kit with a specific antibody against LTB4.

[2] = test system: prostaglandin type E2 (PGE2) production; assay: PGE2 production in eyes of rats exposed to UV irradiation; format: in vivo, albino rats; conditions: dexamethasone 4 mg/kg per day, melanotropin 10 μg per day
Procedure: One eye of albino rats of either sex weighing 200-250 gm was exposed to UV irradiation (200-400 nm) for 15 min. daily for 4 consecutive days. The other contralateral eye of each rat was not exposed to the irradiation and served as a control.
The animals were divided into three groups (8 rats in each group) as follows: (1) untreated; (2) rabbits exposed to UV irradiation and a daily intermuscular (i.m.) injection of 4 mg/kg dexamethasone; and (3) rabbits exposed to UV irradiation and treated with a daily injection (i.m.) of 10 μg/kg of melanotropin.
In the treated group of animals, the specific treatment began each day within one hour after the UV exposure. The animals were sacrificed two days following the last UV irradiation and the eyes were frozen at -70° C. The cornea was disected and incubated in a shaking bath at 37° C. for 40 mins. in a Heppes buffer (pH=7.4). At the end of the incubation, a sample was obtained from the medium and the contents of the leukotrien B4 (LTB4) was determined by a radioimmunoassay (RIA) technique using a New England Nuclear Kit with a specific antibody against LTB4.
The production of prostaglandin type E2 (PGE2) was also measured in the eyes of three groups of rats. The amount of PGE2 in the eyes exposed to UV irradiation was higher than in the nonirradiated control eyes (4.1±1.9 pg/mg weight as compared to 1.8±0.3 pg/mg weight, p=0.001).

[3] = test system: bovine vascular endothilial cells (ABAE); assay: 3H-Thymidine uptake by bovine vascular endothelial cells; format: cell-based; conditions: bFGF 9 ng/ml; EGF 10 ng/ml; melanotropin 10^-6 M and 10^-7 M; single set of experiments
Procedure: ABAE cells were grown in DMEM (Dulbeccos Modified Eagles Media) supplemented with 5% heat inactivated fetal calf serum, 5% heat inactivated newborn calf serum, 2 mM glutamine and antibiotics (100 U/ml penicillin G, 0.25 mg/ml amphotericin B and 0.1 mg/ml streptomycin) (all from Biological Industries, Beth HaEmek, Israel) in 56.7 cm^2 tissue culture dishes (Nunc, Roskilde, Denmark) at 37° C. in a humidified atmosphere incubator with 10% CO2.
The cultures were supplemented every other day with 10^-9 ng/ml of bFGF until they reached confluency.
The cells were then trypsinized by adding 0.041% trypsin (Biological Industries, Beth HaEmek, Israel) for a few minutes at 37° C. The cells were then diluted by a factor of six and plated in microwell plates. Growth medium was changed twice a week.
The cells were then divided into five groups as described in Examples 1 and 2 and a different medium was added to the wells of each group as follows: (1) serum free medium containing melanotropin 10^-6 M; (2) serum free medium containing melanotropin 10^-7 M; (3) serum free medium containing EGF 10 ng/ml; (4) serum free medium containing bFGF 9 ng/ml; and (5) serum free medium alone.
The degree of ^3 H-Thymidine uptake by the cells was again determined as described in Examples 1 and 2.

[4] = test system: human skin fibroblast (HSF) cell culture; assay: 3H-Thymidine uptake by human skin fibroblast cell culture; format: cell-based; conditions: bFGF 9 ng/ml; EGF 10 ng/ml; melanotropin 10^-6 M and 10^-7 M; serum free medium, FIG. 2
Procedure: HSF cells were grown in DMEM (Dulbeccos Modified Eagles Media) supplemented with 10% heat inactivated fetal calf serum, 2 mM glutamine and antibiotics (100 U/mi penicillin G, 0.25 mg/ml amphotericin B and 0.1 mg/ml streptomycin) (Biological Industries, Beth Haemek, Israel) in 56.7 cm^2 tissue culture flasks (Nunc, Roskilde, Denmark) at 37° C. in a 10% CO2 humidified atmosphere incubator. When the cells reached confluency, they were tripsinized by incubation with 0.083% tripsine (Biological Industries, Beth HaEmek, Israel) for a few minutes at 37° C. and seeded (please complete). The growth medium of the cells with or without drugs was changed twice a week.
The wells were then divided into five groups and a different medium was added to the wells of each group as described in Example 1. The medium added to each of the five groups was: (1) serum free medium containing melanotropin 10^-6 M; (2) serum free medium containing melanotropin 10^-7 M; (3) serum free medium containing EGF 10 ng/ml; (4) serum free medium containing bFGF 9 nn/ml; and (5) serum free medium only.
The degree of ^3 H-Thymidine uptake by human skin fibroblast was determined as described in Example 1.

[5] = test system: bovine RPE cells; assay: wound closure technique: proliferation and migration of RPE cells over denuded area; format: cell-based; conditions: bFGF 10^-10 mg/ml
Procedure: The ability of RPE cells to proliferate and migrate over denuded areas was measured using a slight modification of the previously known technique termed "wound closure technique" (Jumblatt and Neufeld, 1986).
In this example bovine RPE cells were grown as described in Example 1 and plated in microwell plates containing 16 ml wells. When the cultures reached confluency, sloughing of the cells from a centrally located area in each well was carried out using a very sharp blade. In order to remove non adherent cells, each well was rinsed with a 1 ml Earle's balanced salt solution (EBSS: Gibco). The cultures were photographed at the time of the sloughing and at 12, 24 and 48 hours after the sloughing procedure. In this way the size of the denuded area in the culture at the time of the sloughing was documented and could be compared later to the same cultures at different time periods after the denudation.
The ability of the bovine RPE cells to proliferate and migrate over the denuded area in the well was determined by analyzing the covered and uncovered area in the photographs of the cultures taken at different time periods as described in Jumblatt & Neufeld (ibid). The rate of the "wound" closure was calculated as mm^2 per hour or as the percentage of the covered area in the culture wells at a specific time period.
The bovine RPE cell cultures were divided into six groups. […]

Row | Compound | LTB4 produced by the corneas of the UV irradiated eyes [1] [pg/mg weight] | PGE2 produced by UV irradiated corneas compared with irradiated but untreated corneas [2] | 3H-Thymidine uptake by the bovine vascular endothilium cells [3] | 3H-Thymidine uptake of human skin fibroblasts as compared to cells treated with medium alone [4] | cell covered area in the wells ([5]; 12 hours after the wounding) [mm^2] | cell covered area in the culture ([5]; 48 hours after addition, p<0.05 vs medium alone) [mm^2]
1 | C[C@@H]1C[C@H]2[C@@H]3CCC4=CC(=O)C=C[C@]4(C)[C@@]3(F)[C@@H](O)C[C@]2(C)[C@@]1(O)C(=O)CO [dextamethasone, dexamethasone] | 9.38±2.4 | lower than the amount of the PGE2 in the irradiated but untreated rats' corneas |  |  |  | 
2 | EGF: Epidermal growth factor, comparison growth factor |  |  | significant induction | did not cause any increase |  | 
3 | bFGF: basic fibroblast growth factor, comparison growth factor |  |  | significant induction | five-fold increase | 11.4±1.1 | 21.1±0.7

Reference: patent US5877154A, “Pharmaceutical compositions for the treatment or prevention of disorders in the eye” (Ramot University Authority for Applied Research and …, priority 1992, dated 1999)
